According to patent US20100298141A1, “SUBSTITUTED PYRIDINE N-OXIDE HERBICIDES” (E. I. DU PONT DE NEMOURS AND COMPANY, priority 2007, published 2010):

What was measured:
wheat = assay: Test C pre-/postemergence test; assay type: in vivo, Triticum aestivum
In short: (§1)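 Compounds in a non-phytotoxic solvent with surfactant applied preemergence to seeded pots and, at the same time, postemergence to plants 2–18 cm tall (1- to 4-leaf stage). Paddy tests: pots flooded to 3 cm, compound applied into the water, depth held throughout.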

morningglory [1] = assay: Test A pre-/postemergence greenhouse test; assay type: in vivo, Ipomoea spp.; settings: for Plant response rating, Morningglory: 0 to 100 scale where 0 is no effect and 100 is complete control; for Morningglory plant response rating: 0 to 100 scale
In short: (§2)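 Two application timings were run side by side in the greenhouse. Before emergence, compound went onto the soil surface of loam–sand pots as a directed spray; after emergence, plants at 2–10 cm and the one- to two-leaf stage were treated. Visual injury versus controls was rated at approximately day ten.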

yellow nutsedge = assay: Test C pre-/postemergence test; assay type: in vivo, Cyperus esculentus
In short: as §1

[2] = system: common (oilseed) sunflower; assay: Test C pre-/postemergence test; assay type: in vivo, Helianthus annuus
In short: as §1

crabgrass = assay: Test C pre-/postemergence test; assay type: in vivo, Digitaria sanguinalis
In short: as §1

woolly cupgrass = assay: Test C pre-/postemergence test; assay type: in vivo, Eriochloa villosa
In short: as §1

green foxtail = assay: Test C pre-/postemergence test; assay type: in vivo, Setaria viridis
In short: as §1

cocklebur = assay: Test C pre-/postemergence test; assay type: in vivo, Xanthium strumarium; settings: for Plant response rating, Cocklebur: scale 0 to 100, 0 no effect, 100 complete control
In short: as §1

Italian ryegrass = assay: Test C pre-/postemergence test; assay type: in vivo, Lolium multiflorum; settings: for Plant response rating (0 to 100), Ryegrass, Italian / Plant response rating, Ryegrass, Italian: Postemergence; for Plant response rating, Ryegrass, Italian: scale 0 to 100, 0 no effect, 100 complete control
In short: as §1

morningglory [3] = assay: Test C pre-/postemergence test; assay type: in vivo, Ipomoea coccinea
In short: as §1

umbrella sedge = assay: Test C flooded paddy test; assay type: in vivo, Cyperus difformis; settings: Flood
In short: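 Pots were flooded to 3 cm above the soil surface at treatment, compound applied directly to the paddy water, and that depth held throughout. Plants were kept in a greenhouse for 13 to 15 days, then visually rated against untreated controls.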

pigweed = assay: Test C pre-/postemergence test; assay type: in vivo, Amaranthus retroflexus
In short: as §1

corn = assay: Test C pre-/postemergence test; assay type: in vivo, Zea mays
In short: as §1

kochia = assay: Test C pre-/postemergence test; assay type: in vivo, Kochia scoparia
In short: as §1

blackgrass = assay: Test C pre-/postemergence test; assay type: in vivo, Alopecurus myosuroides
In short: as §1

soybean = assay: Test C pre-/postemergence test; assay type: in vivo, Glycine max
In short: as §1

barnyardgrass = assay: Test A pre-/postemergence greenhouse test; assay type: in vivo, Echinochloa crus-galli; settings: for Plant response rating, Barnyardgrass: 0 to 100 scale where 0 is no effect and 100 is complete control; for Barnyardgrass plant response rating: 0 to 100 scale
In short: as §2

[4] = 62 g ai/ha, Preemergence, scale 0 to 100
[5] = 125 g ai/ha, preemergence, scale 0 (no effect) to 100 (complete control)
[6] = Postemergence, 125 g ai/ha, scale 0 to 100, 0 no effect, 100 complete control
[7] = Postemergence, 250 g ai/ha, scale 0 to 100, 0 no effect, 100 complete control
[8] = Preemergence, 31 g ai/ha, scale 0 to 100 (0 no effect, 100 complete control)
[9] = preemergence, 250 g ai/ha, scale 0 (no effect) to 100 (complete control)
[10] = Postemergence, 500 g ai/ha, 0 is no effect, 100 is complete control
[11] = Preemergence, 125 g ai/ha, 0 no effect, 100 complete control
[12] = Postemergence, 62 g ai/ha, scale 0 to 100, 0 no effect, 100 complete control

In the case of `CCn1nc(C(F)(F)F)c(CS(=O)(=O)c2cc(C)cc[n+]2[O-])c1OCC(F)(F)F` [Compound 64], the “Wheat plant response rating” value (wheat; [4]) is reported as 20, the “Wheat plant response rating” value (wheat; [5]) is reported as 30 and the “Plant response rating (0 to 100), Wheat” value (wheat; Postemergence, 31 g ai/ha) is reported as 0. For the same compound, the “Plant response rating (0 to 100), Wheat” value (wheat; Postemergence, 62 g ai/ha) was 50, the “Plant response rating, Wheat” value (wheat; [6]) was 65 and the “Plant response rating, Wheat” value (wheat; [7]) was 65. The “Plant response rating, Wheat” value (wheat; [8]) was 0, the “Wheat plant response rating” value (wheat; [9]) was 100 and the “Plant response rating, Morningglory” value (morningglory [1]; Postemergence, 125 g ai/ha) was 30. The “Morningglory plant response rating” value (morningglory [1]; [10]) was 60, the “Morningglory plant response rating” value (morningglory [1]; [11]) was 30 and the “Plant response rating, Morningglory” value (morningglory [1]; Preemergence, 500 g ai/ha) was 80. The “Nutsedge, Yellow plant response rating” value (yellow nutsedge; [4]) was 98, the “Nutsedge, Yellow plant response rating” value (yellow nutsedge; [5]) was 98 and the “Plant response rating (0 to 100), Nutsedge, Yellow” value (yellow nutsedge; Postemergence, 31 g ai/ha) was 0. The “Plant response rating, Nutsedge, Yellow” value (yellow nutsedge; [12]) was 0, the “Plant response rating, Nutsedge, Yellow” value (yellow nutsedge; [6]) was 0 and the “Plant response rating, Nutsedge, Yellow” value (yellow nutsedge; [7]) was 0. For the same compound, the “Plant response rating, Nutsedge, Yellow” value (yellow nutsedge; [8]) was 0, the “Nutsedge, Yellow plant response rating” value (yellow nutsedge; [9]) was 98 and the “Sunflower plant response rating” value [2, 4] was 30. The “Sunflower plant response rating” value [2, 5] was 80, the “Plant response rating, Sunflower” value [2, 8] was 0 and the “Sunflower plant response rating” value [2, 9] was 95. The “Crabgrass, Large plant response rating” value (crabgrass; [4]) was 100, the “Crabgrass, Large plant response rating” value (crabgrass; [5]) was 100 and the “Plant response rating (0 to 100), Crabgrass, Large” value (crabgrass; Postemergence, 31 g ai/ha) was 0. The “Plant response rating, Crabgrass, Large” value (crabgrass; [12]) was 0, the “Plant response rating, Crabgrass, Large” value (crabgrass; [6]) was 0 and the “Plant response rating, Crabgrass, Large” value (crabgrass; [7]) was 20. For the same compound, the “Plant response rating, Crabgrass, Large” value (crabgrass; [8]) was 98, the “Crabgrass, Large plant response rating” value (crabgrass; [9]) was 100 and the “Cupgrass, Woolly plant response rating” value (woolly cupgrass; [4]) was 100. The “Cupgrass, Woolly plant response rating” value (woolly cupgrass; [5]) was 100, the “Plant response rating (0 to 100), Cupgrass, Woolly” value (woolly cupgrass; Postemergence, 31 g ai/ha) was 0 and the “Plant response rating, Cupgrass, Woolly” value (woolly cupgrass; [12]) was 0. For the same compound, the “Plant response rating, Cupgrass, Woolly” value (woolly cupgrass; [6]) was 0, the “Plant response rating, Cupgrass, Woolly” value (woolly cupgrass; [7]) was 50 and the “Plant response rating, Cupgrass, Woolly” value (woolly cupgrass; [8]) was 60. For the same compound, the “Cupgrass, Woolly plant response rating” value (woolly cupgrass; [9]) was 100, the “Foxtail, Green plant response rating” value (green foxtail; [4]) was 100 and the “Foxtail, Green plant response rating” value (green foxtail; [5]) was 100. The “Plant response rating (0 to 100), Foxtail, Green” value (green foxtail; Postemergence, 31 g ai/ha) was 0, the “Plant response rating, Foxtail, Green” value (green foxtail; [12]) was 0 and the “Plant response rating, Foxtail, Green” value (green foxtail; [6]) was 50. For the same compound, the “Plant response rating, Foxtail, Green” value (green foxtail; [7]) was 80, the “Plant response rating, Foxtail, Green” value (green foxtail; [8]) was 75 and the “Foxtail, Green plant response rating” value (green foxtail; [9]) was 100. The “Cocklebur plant response rating” value (cocklebur; [4]) was 0, the “Cocklebur plant response rating” value (cocklebur; [5]) was 0 and the “Plant response rating (0 to 100), Cocklebur” value (cocklebur; Postemergence, 31 g ai/ha) was 0. For the same compound, the “Plant response rating, Cocklebur” value (cocklebur; Postemergence, 62 g ai/ha) was 0, the “Plant response rating, Cocklebur” value (cocklebur; Postemergence, 125 g ai/ha) was 0 and the “Plant response rating, Cocklebur” value (cocklebur; Postemergence, 250 g ai/ha) was 0. The “Ryegrass, Italian plant response rating” value (Italian ryegrass; [4]) was 50, the “Ryegrass, Italian plant response rating” value (Italian ryegrass; [5]) was 90 and the “Plant response rating (0 to 100), Ryegrass, Italian” value (Italian ryegrass; 31 g ai/ha) was 0. For the same compound, the “Plant response rating (0 to 100), Ryegrass, Italian” value (Italian ryegrass; 62 g ai/ha) was 0, the “Plant response rating, Ryegrass, Italian” value (Italian ryegrass; 125 g ai/ha) was 30 and the “Plant response rating, Ryegrass, Italian” value (Italian ryegrass; 250 g ai/ha) was 45. For the same compound, the “Ryegrass, Italian plant response rating” value (Italian ryegrass; [9]) was 100, the “Morningglory plant response rating” value (morningglory [3]; [4]) was 50 and the “Morningglory plant response rating” value (morningglory [3]; [5]) was 55. For the same compound, the “Plant response rating (0 to 100), Morningglory” value (morningglory [3]; Postemergence, 31 g ai/ha) was 0, the “Plant response rating, Morningglory” value (morningglory [3]; [12]) was 0 and the “Plant response rating, Morningglory” value (morningglory [3]; [6]) was 0. The “Plant response rating, Morningglory” value (morningglory [3]; [7]) was 0, the “Plant response rating, Morningglory” value (morningglory [3]; [8]) was 0 and the “Morningglory plant response rating” value (morningglory [3]; [9]) was 80. For the same compound, the “Plant response rating, Sedge, Umbrella” value (umbrella sedge; 62 g ai/ha, scale 0 to 100 (0 no effect, 100 complete control)) was 80, the “Plant response rating, Sedge, Umbrella” value (umbrella sedge; 250 g ai/ha, scale 0 to 100, 0 no effect, 100 complete control, 13 to 15 days) was 100 and the “Pigweed plant response rating” value (pigweed; [4]) was 95. The “Pigweed plant response rating” value (pigweed; [5]) was 100, the “Plant response rating (0 to 100), Pigweed” value (pigweed; Postemergence, 31 g ai/ha) was 0 and the “Plant response rating (0 to 100), Pigweed” value (pigweed; Postemergence, 62 g ai/ha) was 0. For the same compound, the “Plant response rating, Pigweed” value (pigweed; [6]) was 0, the “Plant response rating, Pigweed” value (pigweed; [7]) was 5 and the “Plant response rating, Pigweed” value (pigweed; [8]) was 95. For the same compound, the “Pigweed plant response rating” value (pigweed; [9]) was 100, the “Corn plant response rating” value (corn; [4]) was 95 and the “Corn plant response rating” value (corn; [5]) was 95. For the same compound, the “Plant response rating (0 to 100), Corn” value (corn; Postemergence, 31 g ai/ha) was 0, the “Plant response rating, Corn” value (corn; [12]) was 0 and the “Plant response rating, Corn” value (corn; [6]) was 0. For the same compound, the “Plant response rating, Corn” value (corn; [7]) was 0, the “Plant response rating, Corn” value (corn; [8]) was 0 and the “Corn plant response rating” value (corn; [9]) was 95. The “Kochia plant response rating” value (kochia; [4]) was 100, the “Kochia plant response rating” value (kochia; [5]) was 100 and the “Plant response rating (0 to 100), Kochia” value (kochia; Postemergence, 31 g ai/ha) was 0. For the same compound, the “Plant response rating, Kochia” value (kochia; [12]) was 0, the “Plant response rating, Kochia” value (kochia; [6]) was 0 and the “Plant response rating, Kochia” value (kochia; [7]) was 0. For the same compound, the “Plant response rating, Kochia” value (kochia; [8]) was 100, the “Kochia plant response rating” value (kochia; [9]) was 100 and the “Blackgrass plant response rating” value (blackgrass; [4]) was 90. For the same compound, the “Blackgrass plant response rating” value (blackgrass; [5]) was 100, the “Plant response rating (0 to 100), Blackgrass” value (blackgrass; Postemergence, 31 g ai/ha) was 20 and the “Plant response rating, Blackgrass” value (blackgrass; [12]) was 60. The “Plant response rating, Blackgrass” value (blackgrass; [6]) was 60, the “Plant response rating, Blackgrass” value (blackgrass; [8]) was 90 and the “Blackgrass plant response rating” value (blackgrass; [9]) was 100. The “Soybean plant response rating” value (soybean; [4]) was 20, the “Soybean plant response rating” value (soybean; [5]) was 70 and the “Plant response rating (0 to 100), Soybean” value (soybean; Postemergence, 31 g ai/ha) was 25. For the same compound, the “Plant response rating (0 to 100), Soybean” value (soybean; Postemergence, 62 g ai/ha) was 25, the “Plant response rating, Soybean” value (soybean; [6]) was 30 and the “Plant response rating, Soybean” value (soybean; [7]) was 35. For the same compound, the “Plant response rating, Soybean” value (soybean; [8]) was 0, the “Soybean plant response rating” value (soybean; [9]) was 80 and the “Plant response rating, Barnyardgrass” value (barnyardgrass; Postemergence, 125 g ai/ha) was 90. The “Barnyardgrass plant response rating” value (barnyardgrass; [10]) was 90, the “Barnyardgrass plant response rating” value (barnyardgrass; [11]) was 70 and the “Plant response rating, Barnyardgrass” value (barnyardgrass; Preemergence, 500 g ai/ha) was 100.
